Experimental data: ChEMBL document CHEMBL3232773, “Peniphenones A-D from the mangrove fungus Penicillium dipodomyicola HN4-3A as inhibitors of Mycobacterium tuberculosis phosphatase MptpB” (J Nat Prod, 2014)

Assay: Inhibition of Mycobacterium tuberculosis H37Rv full-length PTPB expressed in Escherichia coli […] using 6,8-difluoromethylumbelliferyl phosphate as substrate assessed as inhibition of substrate hydrolysis

Row | Molecule | IC50
1 | CC(=O)c1cc(C)c(O)c(Cc2c(O)cc(-c3ccc(O)c(O)c3)oc2=O)c1O | 160 nM
2 | CC(=O)c1cc(C)c(O)c(CC2=C(C)C(=O)C(O)=C(C)C2=O)c1O | 1370 nM
3 | SODIUM ORTHOVANAD | 82 nM
